According to PMC9221546, “New Phenylglycinamide Derivatives with Hybrid Structure as Candidates for New Broad-Spectrum Anticonvulsants” (Cells, 2022):
Like-named read-outs stand apart in the source and are kept apart here. Marks after values point to notes of the source that are not given here.

What was measured:
[1] = PAMPA permeability (Pre-coated PAMPA Plate System Gentest); type: in vitro ADME
From the text: Caffeine (CFN) and norfloxacin (NFX) were used as the high- and low-permeable references, respectively.

TRPV1 (VR1) (h) [2] = target: T1, TRPV1 (VR1) (h) (Homo sapiens, UniProt Q8NER1); assay: TRPV1 (VR1) (h) antagonist effect functional assay; type: cell-based; details: human recombinant CHO cells, read-out: % Inhibition of control agonist response, TRPV1 (antagonist effect)
T1 construct: host or cells: CHO
T1 sequence (Q8NER1 whole entry): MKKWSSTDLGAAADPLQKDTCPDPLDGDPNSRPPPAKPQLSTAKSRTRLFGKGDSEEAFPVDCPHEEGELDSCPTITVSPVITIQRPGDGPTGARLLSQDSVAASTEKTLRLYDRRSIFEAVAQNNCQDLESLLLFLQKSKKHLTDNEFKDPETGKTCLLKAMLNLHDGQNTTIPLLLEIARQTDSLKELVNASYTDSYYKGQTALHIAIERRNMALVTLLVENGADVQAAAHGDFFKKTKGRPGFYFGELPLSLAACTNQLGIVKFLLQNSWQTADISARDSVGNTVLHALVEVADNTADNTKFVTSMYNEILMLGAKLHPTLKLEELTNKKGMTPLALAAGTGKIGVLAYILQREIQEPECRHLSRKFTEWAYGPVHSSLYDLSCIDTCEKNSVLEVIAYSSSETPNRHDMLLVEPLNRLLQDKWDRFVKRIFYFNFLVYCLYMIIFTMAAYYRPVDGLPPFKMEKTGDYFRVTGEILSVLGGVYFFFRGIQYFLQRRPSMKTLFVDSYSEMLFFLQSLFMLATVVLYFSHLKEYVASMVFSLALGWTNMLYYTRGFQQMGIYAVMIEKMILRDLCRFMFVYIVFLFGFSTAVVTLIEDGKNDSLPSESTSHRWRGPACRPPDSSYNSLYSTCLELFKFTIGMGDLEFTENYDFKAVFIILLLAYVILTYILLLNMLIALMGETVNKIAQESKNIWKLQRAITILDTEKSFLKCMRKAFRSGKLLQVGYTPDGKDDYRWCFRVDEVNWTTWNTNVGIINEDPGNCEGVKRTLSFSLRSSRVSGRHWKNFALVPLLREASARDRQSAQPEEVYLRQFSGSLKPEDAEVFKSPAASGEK
Method: (§1) Binding/functional studies were carried out commercially in Eurofins Laboratories (Poitiers, France) and Eurofins Panlabs Discovery Services Taiwan, Ltd. (New Taipei City, Taiwan) using testing procedures that were reported previously (for details see Table S2).
(§2) Table S2. Radioligand binding and functional assays. […]
Assays were performed commercially in Eurofins Laboratories (Poitiers, France) or Eurofins Panlabs Discovery Services Taiwan, Ltd. (New Taipei City, Taiwan).
Table S3. In vitro TRPV1 channel antagonist activity for compounds 45–66 (concentration of 100 µM). […]
Cmpd % Inhibition of control Cmpd % Inhibition of control agonist responsea agonist responsea
*Source: human recombinant CHO cells. a Results showing activity higher than 50% are considered to represent […]
variability of the sign al around the control level. Assays were performed commercially in Eurofins Laboratories

[3] = system: 6 Hz (32 mA) seizures in mice; assay: 6 Hz (32 mA) psychomotor seizure model; type: in vivo; details: Mus musculus, ip; for responders at 100 mg/kg: 100 mg/kg i.p., 0.5 h; for ED50: mice, pretreatment time 0.5 h, (95% confidence limits)
Method: (§3) Adult male Albino Swiss mice that weighed between 22 and 26 g were used in the in vivo studies. They were housed under standardized housing conditions in colony cages and had free access to food as well as tap water. The animals were left to adapt under laboratory conditions for 7 days. All procedures involving animals and their care were performed in accordance with the current European Community and Polish legislation on animal experimentation.
(§4) In the initial screening studies, four mice per group were randomly assigned to each experimental group (each mouse was used only once). To evaluate the ED50 or TD50 values, 3–4 groups that consisted of eight animals were injected with various doses of tested compounds. The protective indexes (PIs) for the compounds that were investigated and reference ASDs were calculated by dividing the TD50 value, as determined in the chimney test (or rotarod test), by the respective ED50 value, as determined in the MES, scPTZ, or 6 Hz (32 mA or 44 mA) tests (PI = TD50/ED50). The PIs is a measure of the potential therapeutic window of the tested agent.
(§5) All substances were suspended in Tween 80 (1% aqueous solution) and administered i.p. as a single injection at a dose of 10 mL/kg. On each day of experimentation, fresh solutions were prepared. The results are summarized in Table S1 (screening data) and Table 2 (ED50, TD50, and PI values, see Section 3 Results and Discussion).
(§6) The detailed in vivo procedures are described elsewhere: the maximal electroshock seizure test (MES), the subcutaneous pentylenetetrazole seizure test (scPTZ), the 6 Hz psychomotor seizure model (32 mA and 44 mA), and the chimney test.
(§7) The basic animal seizure models such as the MES, 6 Hz (32 mA or 44 mA), and the scPTZ are still a standard in the discovery and development of new ASDs. In vivo screening approaches enable the identification of compounds with unidentified and potentially novel mechanisms of action besides substances with well-established pharmacodynamics. Bearing in mind the aforementioned facts, compounds 45–66 were initially studied in the MES test and in the 6 Hz seizure model (32 mA) after intraperitoneal (i.p.) administration at a screening dose of 100 mg/kg in mice at a time point of 0.5 h (the screening group consisted of four mice, the results obtained are summarized in Table S1). It should be stressed that the MES test is an experimental model of human tonic–clonic epilepsy as well as partial convulsions with or without secondary generalization, the 6 Hz model (32 mA) corresponds to human focal epilepsy, whereas the scPTZ test relates to human generalized absence or myoclonic seizures.
(§8) We also established the median toxic doses (TD50) in the chimney test 0.5 h post i.p. administration of these compounds. Both the aforementioned parameters enabled the calculation of the protective indexes (PIs).

[4] = system: scPTZ-induced seizures in mice; assay: Subcutaneous pentylenetetrazole (scPTZ) seizure test; type: in vivo; details: 100 mg/kg i.p., 0.5 h
Method: as §3, §4, §5, §6, §7

[5] = Chimney test (acute neurological deficit); details: mouse, in vivo, ip, mice
Method: as §4, §5, §6
We also established the median toxic doses (TD50) in the chimney test 0.5 h post i.p. administration of these compounds. […]

[6] = system: MES-induced seizures in mice; assay: Maximal electroshock seizure (MES) test; type: in vivo; details: for protection in MES screening / responders at 100 mg/kg: 100 mg/kg i.p., 0.5 h; for protection in MES screening: four mice; for responders at 100 mg/kg / ED50: Mus musculus, ip; for responders at 100 mg/kg: read-out: MES screening: number of mice protected/number of mice tested (converted); for ED50: mice, pretreatment time 0.5 h, (95% confidence limits)
Method: as §3, §4, §5, §6, §7, §8

[7] = target: T2, Cav1.2 (h) calcium ion channel (Homo sapiens, UniProt Q13936); assay: Cav1.2 (h) calcium ion channel cell-based antagonist calcium flux assay; details: HEK293, human recombinant HEK-293 cell, read-out: % Inhibition of control agonist response, Cav1.2 calcium flux
T2 construct: Eurofins
Method: as §1, §2
TRPV1 (VR1) (h) (antagonist effect)
Cav1.2 (L-type) (h) calcium ion channel cell-based antagonist calcium flux assay
Assays were performed commercially in Eurofins Laboratories (Poitiers, France) or Eurofins Panlabs Discovery
Services Taiwan, Ltd. (New Taipei City, Taiwan). […]

Na+ channel (site 2) = Na+ channel (site 2) radioligand binding; details: 10 µM; rat cerebral cortex
hepatoma HepG2 cell line = assay: Hepatotoxicity, HepG2 viability (MTS); type: cell-based; details: 72 h treatment
Method: Figure 7 The effect of 53, 60, and 62, cytostatic drug doxorubicin (DX) and the mitochondrial toxin CCCP on the hepatoma HepG2 cell line viability after 72 h of incubation at 37 °C, 5% CO2. The data were analyzed with one-way ANOVA, followed by Bonferroni’s Comparison Test (Graph Pad Prism 8.0.1 software, San Diego, CA, USA)): ** p < 0.01, **** p < 0.0001 vs. negative control (DMSO 1% in growth media).

[8] = Metabolic stability in human liver microsomes (HLMs)
recombinant human CYP2C9 = target: T3, recombinant human CYP2C9 (Homo sapiens, UniProt P11712); assay: CYP2C9 P450-Glo luminescent assay; type: in vitro ADME
T3 construct: purchased Promega (Madison, WI, USA)
Method: The risk of potential DDIs was predicted with use of luminescent CYP3A4, 2D6, and 2C9 P450-Glo assays (Figure 6). […] However, such an effect was also observed in our previous studies for other pyrrolidine-2,5-dione derivatives. […] However, the potential risk of DDI of 60 was still assessed as very low, and was compared to the selective CYP2C9 inhibitor sulfaphenazole (Figure 6C).
The data were analyzed with one-way ANOVA, followed by Bonferroni’s Multiple Comparison Post Test (Graph Pad Prism 8.0.1 software, San Diego, CA, USA)): * p < 0.05, ** p < 0.01, *** p < 0.001 **** p < 0.0001. The compounds were examined in triplicate.

[9] = target: T4, Calcium Cav1.2 channels (dihydropyridine site) (Homo sapiens, UniProt Q13936); assay: Calcium Cav1.2 channel binding (dihydropyridine site, antagonist radioligand); details: 10 µM; human recombinant HEK-293 cell; read-out: % Inhibition of Control Specific Binding, Cav1.2 (dihydropyridine site)
T4 construct: host or cells: HEK-293
T4 sequence (Q13936 whole entry): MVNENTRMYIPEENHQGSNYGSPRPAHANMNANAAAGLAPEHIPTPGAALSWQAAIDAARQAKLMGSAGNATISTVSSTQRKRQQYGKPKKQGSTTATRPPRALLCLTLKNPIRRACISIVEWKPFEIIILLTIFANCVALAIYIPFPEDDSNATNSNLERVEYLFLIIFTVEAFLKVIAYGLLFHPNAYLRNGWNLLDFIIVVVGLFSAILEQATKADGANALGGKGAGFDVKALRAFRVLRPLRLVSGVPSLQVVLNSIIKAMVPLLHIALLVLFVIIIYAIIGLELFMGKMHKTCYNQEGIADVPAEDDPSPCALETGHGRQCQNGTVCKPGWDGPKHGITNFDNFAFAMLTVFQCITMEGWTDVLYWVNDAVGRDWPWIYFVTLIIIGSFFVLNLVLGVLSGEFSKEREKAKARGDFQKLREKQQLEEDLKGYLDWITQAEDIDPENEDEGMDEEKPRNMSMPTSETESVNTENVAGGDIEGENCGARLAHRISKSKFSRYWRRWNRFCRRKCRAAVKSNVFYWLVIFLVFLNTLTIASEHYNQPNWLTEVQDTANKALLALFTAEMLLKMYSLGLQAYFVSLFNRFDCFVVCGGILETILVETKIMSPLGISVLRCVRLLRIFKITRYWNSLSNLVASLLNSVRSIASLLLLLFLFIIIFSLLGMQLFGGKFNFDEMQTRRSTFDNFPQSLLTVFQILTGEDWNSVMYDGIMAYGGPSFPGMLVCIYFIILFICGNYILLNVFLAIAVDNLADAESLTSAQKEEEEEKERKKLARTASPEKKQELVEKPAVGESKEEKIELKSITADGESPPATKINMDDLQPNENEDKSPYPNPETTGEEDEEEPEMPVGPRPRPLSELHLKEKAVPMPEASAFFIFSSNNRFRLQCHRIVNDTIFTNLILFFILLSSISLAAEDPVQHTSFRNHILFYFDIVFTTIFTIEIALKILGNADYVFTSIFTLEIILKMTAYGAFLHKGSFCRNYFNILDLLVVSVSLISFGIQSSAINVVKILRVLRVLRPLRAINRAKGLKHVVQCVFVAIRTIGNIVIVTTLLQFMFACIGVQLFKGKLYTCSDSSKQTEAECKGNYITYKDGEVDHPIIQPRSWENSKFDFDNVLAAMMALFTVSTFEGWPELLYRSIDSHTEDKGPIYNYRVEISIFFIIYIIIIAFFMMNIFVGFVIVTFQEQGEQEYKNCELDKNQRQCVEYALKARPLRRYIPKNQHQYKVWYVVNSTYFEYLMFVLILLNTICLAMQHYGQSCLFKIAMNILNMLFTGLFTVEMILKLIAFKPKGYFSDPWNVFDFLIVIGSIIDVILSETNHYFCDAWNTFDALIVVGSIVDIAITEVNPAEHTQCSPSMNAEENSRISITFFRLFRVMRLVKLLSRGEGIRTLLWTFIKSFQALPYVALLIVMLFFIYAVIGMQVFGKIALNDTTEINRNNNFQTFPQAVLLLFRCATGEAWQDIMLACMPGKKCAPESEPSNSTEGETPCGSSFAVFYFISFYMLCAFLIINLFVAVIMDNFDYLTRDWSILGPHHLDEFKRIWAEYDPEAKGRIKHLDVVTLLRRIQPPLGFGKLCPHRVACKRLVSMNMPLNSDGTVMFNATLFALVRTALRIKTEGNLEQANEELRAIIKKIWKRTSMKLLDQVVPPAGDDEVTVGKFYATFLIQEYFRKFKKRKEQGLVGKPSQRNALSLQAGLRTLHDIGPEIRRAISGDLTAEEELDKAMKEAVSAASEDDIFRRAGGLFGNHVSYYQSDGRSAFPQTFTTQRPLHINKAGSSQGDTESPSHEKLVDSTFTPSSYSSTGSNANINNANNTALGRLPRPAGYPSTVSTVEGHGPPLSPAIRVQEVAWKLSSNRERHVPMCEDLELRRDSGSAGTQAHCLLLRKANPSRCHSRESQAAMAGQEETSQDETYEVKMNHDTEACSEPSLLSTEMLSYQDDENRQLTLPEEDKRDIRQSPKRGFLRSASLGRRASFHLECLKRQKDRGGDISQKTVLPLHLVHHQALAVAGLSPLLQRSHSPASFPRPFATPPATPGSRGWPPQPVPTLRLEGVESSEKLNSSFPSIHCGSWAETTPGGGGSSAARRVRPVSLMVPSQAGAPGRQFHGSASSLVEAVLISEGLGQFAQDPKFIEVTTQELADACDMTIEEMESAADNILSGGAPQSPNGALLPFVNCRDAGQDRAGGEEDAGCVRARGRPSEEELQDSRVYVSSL
T4 sequence (Q08289 whole entry partner): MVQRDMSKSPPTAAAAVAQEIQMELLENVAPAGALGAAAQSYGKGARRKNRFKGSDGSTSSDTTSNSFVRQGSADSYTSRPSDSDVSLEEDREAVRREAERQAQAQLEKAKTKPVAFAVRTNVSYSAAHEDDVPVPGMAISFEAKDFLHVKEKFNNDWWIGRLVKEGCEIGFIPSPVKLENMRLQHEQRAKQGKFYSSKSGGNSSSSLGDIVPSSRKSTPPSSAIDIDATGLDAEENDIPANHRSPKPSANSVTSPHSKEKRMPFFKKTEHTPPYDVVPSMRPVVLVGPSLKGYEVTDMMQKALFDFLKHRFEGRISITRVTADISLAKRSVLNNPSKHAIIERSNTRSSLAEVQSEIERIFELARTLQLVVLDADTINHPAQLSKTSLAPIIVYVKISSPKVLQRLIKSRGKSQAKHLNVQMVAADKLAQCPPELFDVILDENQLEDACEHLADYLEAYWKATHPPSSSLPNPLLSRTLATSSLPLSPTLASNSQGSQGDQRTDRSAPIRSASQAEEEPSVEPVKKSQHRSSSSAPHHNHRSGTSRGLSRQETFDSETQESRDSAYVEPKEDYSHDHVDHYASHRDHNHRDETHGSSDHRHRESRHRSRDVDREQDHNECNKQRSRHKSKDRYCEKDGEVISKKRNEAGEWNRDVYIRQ
T4 sequence (P54289 25-956 partner limits assumed): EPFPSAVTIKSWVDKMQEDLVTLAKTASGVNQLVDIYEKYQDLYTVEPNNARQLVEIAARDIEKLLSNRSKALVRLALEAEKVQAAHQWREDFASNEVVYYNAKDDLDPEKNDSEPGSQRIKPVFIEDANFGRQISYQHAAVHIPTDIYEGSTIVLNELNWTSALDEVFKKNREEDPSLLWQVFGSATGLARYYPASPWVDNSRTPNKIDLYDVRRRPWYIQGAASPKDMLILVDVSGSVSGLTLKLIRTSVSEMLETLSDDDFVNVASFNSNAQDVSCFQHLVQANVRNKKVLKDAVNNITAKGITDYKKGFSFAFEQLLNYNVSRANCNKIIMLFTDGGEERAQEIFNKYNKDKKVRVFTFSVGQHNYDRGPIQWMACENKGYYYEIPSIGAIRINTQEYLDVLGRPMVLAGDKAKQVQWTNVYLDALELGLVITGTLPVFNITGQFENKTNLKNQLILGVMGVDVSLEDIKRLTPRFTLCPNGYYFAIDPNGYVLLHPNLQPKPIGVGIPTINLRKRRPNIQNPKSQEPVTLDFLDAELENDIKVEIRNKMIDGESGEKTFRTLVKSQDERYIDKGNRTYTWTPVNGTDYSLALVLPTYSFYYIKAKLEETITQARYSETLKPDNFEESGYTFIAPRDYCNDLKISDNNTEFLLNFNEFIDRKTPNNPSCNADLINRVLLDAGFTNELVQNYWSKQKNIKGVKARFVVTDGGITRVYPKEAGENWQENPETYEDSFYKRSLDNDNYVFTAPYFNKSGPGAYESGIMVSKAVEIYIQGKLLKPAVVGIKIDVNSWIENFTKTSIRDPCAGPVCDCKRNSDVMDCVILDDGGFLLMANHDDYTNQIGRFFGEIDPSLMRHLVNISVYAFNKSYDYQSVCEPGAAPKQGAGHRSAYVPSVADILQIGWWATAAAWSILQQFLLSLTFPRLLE
T4 sequence (P54289 957-1103 partner limits assumed): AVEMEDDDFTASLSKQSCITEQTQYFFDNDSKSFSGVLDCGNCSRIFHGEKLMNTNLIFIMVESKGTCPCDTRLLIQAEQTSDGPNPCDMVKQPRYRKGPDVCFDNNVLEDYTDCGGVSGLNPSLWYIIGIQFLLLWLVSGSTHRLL

TRPV1 (VR1) (h) [10] = target: T1, TRPV1 (VR1) (h); assay: TRPV1 (VR1) (h) antagonist effect functional assay; type: cell-based; details: human recombinant CHO cells
[11] = system: 6 Hz (32 mA) seizures in mice; details: i.p., pretreatment 0.5 h (LEV 1.0 h); cited from earlier work
[12] = system: MES-induced seizures in mice; details: i.p., pretreatment 0.5 h (LEV 1.0 h); cited from earlier work
[13] = system: 6 Hz (44 mA) seizures in mice; details: i.p., pretreatment 0.5 h; cited from earlier work
mice = details: i.p., acute neurological deficit, cited from earlier work
[14] = four mice, read-out: protection in 6 Hz (32 mA) screening
[15] = read-out: 6 Hz (32 mA) screening: number of mice protected/number of mice tested (converted)

Row | SMILES | inhibition at 100 µM (TRPV1 (VR1) (h) [2]) [%] | responders at 100 mg/kg [3, 14] [%] | responders at 100 mg/kg [3, 15] [%] | ED50 [3] [mg/kg] | responders at 100 mg/kg [6] [%] | ED50 [6] [mg/kg] | ED50 MES [12] | ED50 6 Hz (44 mA) [13] | other results
1 | Cn1c(=O)c2c(ncn2C)n(C)c1=O [CFN, Caffeine, reference compound] | – | – | – | – | – | – | – | – | Pe (permeability coefficient) ± SD [1]: 12.22 ± 0.94 10^−6 cm/s
2 | CC(=O)NC(C(=O)N1CCN(c2ccccc2)CC1)c1ccccc1 (stereo not drawn) [Compound 45, N-(2-oxo-1-phenyl-2-(4-phenylpiperazin-1-yl)ethyl)acetamide] | 36.1 | 75 | 75 | 81.6 | 75 | 125 | – | – | scPTZ screening: number of mice protected/number of mice tested [4]: 0/4; TD50 at 0.5 h [5]: 268 mg/kg; protection in MES screening [6]: 75%
3 | CC(=O)NC(C(=O)N1CCN(c2cccc(Cl)c2)CC1)c1ccccc1 (stereo not drawn) [Compound 47, N-(2-(4-(3-chlorophenyl)piperazin-1-yl)-2-oxo-1-phenylethyl)acetamide] | 125 | 75 | 75 | 88.4 | 0 | > 150 | – | – | melting point: 145.5 to 146.7 °C; TD50 at 0.5 h [5]: > 500 mg/kg
4 | CC(=O)NC(C(=O)N1CCN(c2cccc(SC(F)(F)F)c2)CC1)c1ccccc1 (stereo not drawn) [Compound 62, N-(2-oxo-1-phenyl-2-(4-(3-((trifluoromethyl)thio)phenyl)piperazin-1-yl)ethyl)acet--amide] | 135 | 100 | 100 | 33.2 | 75 | 76.1 | – | – | inhibition at 10 µM [7]: 65%; % Inhibition of Control Specific Binding, Na+ channel (site 2) (Na+ channel (site 2)): 57.0 (10) %; effect on HepG2 cell viability (hepatotoxicity) (hepatoma HepG2 cell line): highest hepatotoxic risk; remaining at 2 h ([8]; human, human liver microsomes): 84%; Metabolic Pathway ([8]; metabolites after 120 min incubation with HLMs): hydroxylation; influence on CYP2C9 activity (recombinant human CYP2C9): weak inhibition effect; scPTZ screening: number of mice protected/number of mice tested [4]: 0/4; inhibition at 10 µM [9]: 12%; protection in MES screening [6]: 75%; IC50 (TRPV1 (VR1) (h) [10]): 10 µM; Kb (TRPV1 (VR1) (h) [10]): 1.4 µM
5 | O=C(C(c1ccccc1)N1C(=O)CCC1=O)N1CCN(c2cccc(C(F)(F)F)c2)CC1 (stereo not drawn) [KA-104] | – | – | – | – | – | – | 23.7 (18.4−31.2) mg/kg | 73.2 (57.4–93.4) mg/kg | ED50 6 Hz (32 mA) [11]: 22.4 (17.4−28.8) mg/kg
6 | COC[C@@H](NC(C)=O)C(=O)NCc1ccccc1 [LCS, Lacosamide] | – | – | – | – | – | – | 9.2 (8.5−10.0) mg/kg | 6.9 (5.4–8.6) mg/kg | ED50 6 Hz (32 mA) [11]: 5.3 (3.5−7.8) mg/kg
7 | CC[C@@H](C(N)=O)N1CCCC1=O [LEV, Levetiracetam] | – | – | – | – | – | – | >500 mg/kg | 204.0 (154.5–269.5) mg/kg | TD50 (rotarod test) (mice; ref 32): >500 ** mg/kg; TD50 (rotarod test) (mice; ref 34): >500 ** mg/kg
